The values that follow come from US20250122218A1, “MODULATORS OF CYSTIC FIBROSIS TRANSMEMBRANE CONDUCTANCE REGULATOR” (Vertex Pharmaceuticals Incorporated, priority 2022, published 2025).

The target of the experiment is T1, CFTR in F508del/MF-HBE cells (Homo sapiens, UniProt P13569, DEL508-508).
T1 construct: human bronchial epithelial (HBE) cells derived from CF subjects heterozygous for F508del and a minimal function CFTR mutation; endogenous in cells; host or cells: primary human bronchial epithelial cells from CF subjects (F508del/MF-HBE)
T1 sequence (P13569 with tags, fused parts or gaps DEL508-508): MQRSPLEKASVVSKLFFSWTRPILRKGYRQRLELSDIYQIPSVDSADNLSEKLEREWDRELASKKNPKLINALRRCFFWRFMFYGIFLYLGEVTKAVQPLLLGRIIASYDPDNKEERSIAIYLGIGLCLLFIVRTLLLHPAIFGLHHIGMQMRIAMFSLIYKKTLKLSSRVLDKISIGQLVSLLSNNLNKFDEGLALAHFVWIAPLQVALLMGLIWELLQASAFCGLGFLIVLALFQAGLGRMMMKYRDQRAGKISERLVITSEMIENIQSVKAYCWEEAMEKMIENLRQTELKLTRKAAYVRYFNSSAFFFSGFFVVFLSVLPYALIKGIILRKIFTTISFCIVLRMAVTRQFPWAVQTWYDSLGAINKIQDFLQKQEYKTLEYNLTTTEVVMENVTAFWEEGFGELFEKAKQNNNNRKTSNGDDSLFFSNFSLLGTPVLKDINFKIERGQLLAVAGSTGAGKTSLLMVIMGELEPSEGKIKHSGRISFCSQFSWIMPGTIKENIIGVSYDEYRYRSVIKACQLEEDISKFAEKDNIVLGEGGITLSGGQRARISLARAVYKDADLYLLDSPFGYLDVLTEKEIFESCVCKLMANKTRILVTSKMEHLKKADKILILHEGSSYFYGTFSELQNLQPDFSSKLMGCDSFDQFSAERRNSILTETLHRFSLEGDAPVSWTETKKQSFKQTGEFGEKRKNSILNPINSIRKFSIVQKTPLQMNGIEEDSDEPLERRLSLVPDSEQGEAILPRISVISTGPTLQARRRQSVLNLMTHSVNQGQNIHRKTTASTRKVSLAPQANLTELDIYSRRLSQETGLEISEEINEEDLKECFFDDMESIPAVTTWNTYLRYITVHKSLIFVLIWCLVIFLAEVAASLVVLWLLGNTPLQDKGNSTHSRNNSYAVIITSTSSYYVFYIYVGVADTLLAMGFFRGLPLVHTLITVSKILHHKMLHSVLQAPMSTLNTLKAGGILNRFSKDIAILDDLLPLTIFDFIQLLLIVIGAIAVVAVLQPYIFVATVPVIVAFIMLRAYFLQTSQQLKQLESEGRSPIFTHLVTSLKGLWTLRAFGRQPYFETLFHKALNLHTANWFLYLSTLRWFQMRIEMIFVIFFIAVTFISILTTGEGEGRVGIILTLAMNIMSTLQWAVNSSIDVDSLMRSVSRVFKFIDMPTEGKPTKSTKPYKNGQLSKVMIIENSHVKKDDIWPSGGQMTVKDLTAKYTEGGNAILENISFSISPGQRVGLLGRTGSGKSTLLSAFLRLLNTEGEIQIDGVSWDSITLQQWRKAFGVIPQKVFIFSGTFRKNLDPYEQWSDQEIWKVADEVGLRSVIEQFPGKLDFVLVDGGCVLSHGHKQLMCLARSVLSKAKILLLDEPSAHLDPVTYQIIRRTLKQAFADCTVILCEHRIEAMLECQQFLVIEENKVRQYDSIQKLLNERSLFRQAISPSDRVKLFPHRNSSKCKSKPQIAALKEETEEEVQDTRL
In words: Ussing chamber assay of CFTR-mediated short-circuit currents (identification of potentiator compounds). Format: cell-based. To be noted: potentiator incubated 18-24 hours at 37° C. in combination with 10 μM corrector, in the presence of 20% human serum, CFTR-mediated ISC. In a few lines: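 Short-circuit current was measured in Ussing chambers at 37° C, Vhold 0 mV, 30 μM apical amiloride. CFTR current was defined as the forskolin (20 μM) response relative to the current remaining after BPO/GlyH-101/inhibitor 172 (20 μM each). Before recording, cells had 18-24 h exposure to test potentiators with 10 μM corrector compound in 20% human serum.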

For the compound `CC1(C)CCCC[C@](O)(C(F)(F)F)C2=NN=C(O2)c2nc(c(C(F)(F)F)cc2N)C(=O)C1` [Compound 47, (6R)-17-amino-6-hydroxy-11,11-dimethyl-6,15-bis(trifluoromethyl)-19-oxa-3,4,18-triazatricyclo[12.3.1.12,5]nonadeca-1(18),2,4,14,16-pentaen-13-one], the EC50 (usually the concentration that produces a half-maximal response) was less than 500 nM.
On to `Nc1cc(C(F)(F)F)c2nc1-c1nnc(o1)[C@@](O)(C(F)(F)F)CCCCCC1(CCC1)C2=O` [Compound 48, (6R)-17-amino-6-hydroxy-6,15-bis(trifluoromethyl)spiro[19-oxa-3,4,18-triazatricyclo[12.3.1.12,5]nonadeca-1(18),2,4,14,16-pentaene-12,1′-cyclobutane]-13-one], for which the EC50 is less than 500 nM.
Then `Nc1cc(C(F)(F)F)c2nc1-c1nnc(o1)[C@@](O)(C(F)(F)F)CCCCCC1(CC1)C2=O` [Compound 49, (6R)-17-amino-6-hydroxy-6,15-bis(trifluoromethyl)spiro[19-oxa-3,4,18-triazatricyclo[12.3.1.12,5]nonadeca-1(18),2,4,14,16-pentaene-12,1′-cyclopropane]-13-one], with less than 500 nM; and `CC1(C)CCCCC[C@](O)(C(F)(F)F)C2=NN=C(O2)c2nc(c(C(F)(F)F)cc2N)C1` [Compound 50, (6R)-17-amino-12,12-dimethyl-6,15-bis(trifluoromethyl)-19-oxa-3,4,18-triazatricyclo[12.3.1.12,5]nonadeca-1(18),2,4,14,16-pentaen-6-ol], with less than 500 nM.
As for `Nc1cc(C(F)(F)F)c2nc1-c1nnc(o1)C(O)(C(F)(F)F)CCCCN(Cc1ccccc1)C(=O)C2` (stereo not shown) [Compound 51, 17-amino-11-benzyl-6-hydroxy-6,15-bis(trifluoromethyl)-19-oxa-3,4,11,18-tetrazatricyclo[12.3.1.12,5]nonadeca-1(18),2,4,14,16-pentaen-12-one], the EC50 is less than 500 nM.
Then `CC(C)N1CCCCC(O)(C(F)(F)F)C2=NN=C(O2)c2nc(c(C(F)(F)F)cc2N)CC1=O` (stereo not shown) [Compound 52, 17-amino-6-hydroxy-11-isopropyl-6,15-bis(trifluoromethyl)-19-oxa-3,4,11,18-tetrazatricyclo[12.3.1.12,5]nonadeca-1(18),2,4,14,16-pentaen-12-one], with greater than 1000 nM; and `CN1CCCCC(O)(C(F)(F)F)C2=NN=C(O2)c2nc(c(C(F)(F)F)cc2N)CC1=O` (stereo not shown) [Compound 53, 17-amino-6-hydroxy-11-methyl-6,15-bis(trifluoromethyl)-19-oxa-3,4,11,18-tetrazatricyclo[12.3.1.12,5]nonadeca-1(18),2,4,14,16-pentaen-12-one], with greater than 1000 nM.
Then `COC1CCCCc2ccc(F)c(c2)C(O)(C(F)(F)F)C2=NN=C(O2)c2nc1c(C(F)(F)F)cc2N` (stereo not shown) [Compound 61, 20-Amino-8-fluoro-16-methoxy-6,18-bis(trifluoromethyl)-23-oxa-3,4,21-triazatetracyclo[15.3.1.12,5.17,11]tricosa-1(21),2,4,7(22),8,10,17,19-octaen-6-ol], with less than 500 nM; and `COC1CCCCc2ccc(F)c(c2)C(O)(C(F)(F)F)C2=NN=C(O2)c2nc1c(C(F)(F)F)cc2N` (stereo not shown) [Compound 62, 20-Amino-8-fluoro-16-methoxy-6,18-bis(trifluoromethyl)-23-oxa-3,4,21-triazatetracyclo[15.3.1.12,5.17,11]tricosa-1(21),2,4,7(22),8,10,17,19-octaen-6-ol], with less than 500 nM; and `N#CC1CCCCc2cccc(c2)C(O)(C(F)(F)F)C2=NN=C(O2)c2nc1c(C(F)(F)F)cc2N` (stereo not shown) [Compound 63, 20-amino-6-hydroxy-6,18-bis(trifluoromethyl)-23-oxa-3,4,21-triazatetracyclo[15.3.1.12,5.17,11]tricosa-1(21),2,4,7,9,11(22),17,19-octaene-16-carbonitrile], with less than 500 nM.
